From patent US9125913B2, “Bcl-2-selective apoptosis-inducing agents for the treatment of cancer and immune diseases” (AbbVie Inc., priority 2008, dated 2015) come the findings set out here.

The test system of this experiment is GST-Bcl-2. Put plainly: TR-FRET binding assay, Bcl-2. To be noted: TR-FRET Ki values. Summed up: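 Compounds serially diluted in DMSO from 50 μM (2× starting concentration, 10% DMSO), mixed with GST-tagged protein, F-Bak peptide probe and Tb-labeled antibody, incubated 3 h at room temperature.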
Consider `CC(=O)N1CCC(Nc2ccc(S(=O)(=O)NC(=O)c3ccc(N4CCN(CC5=C(c6ccc(Cl)cc6)CC(C)(C)CC5)CC4)cc3Oc3cccc4[nH]ccc34)cc2[N+](=O)[O-])CC1` [EXAMPLE 337, N-({4-[(1-acetylpiperidin-4-yl)amino]-3-nitrophenyl}sulfonyl)-4-(4-{[2-(4-chlorophenyl)-4,4-dimethylcyclohex-1-en-1-yl]methyl}piperazin-1-yl)-2-(1H-indol-4-yloxy)benzamide], for which the “Binding selectivity ratio (Bcl-XL Ki/Bcl-2 Ki)” value (“Binding selectivity ratio” for short) is greater than 1233.3.

Take `CC1(C)CCC(CN2CCN(c3ccc(C(=O)NS(=O)(=O)c4ccc(NC5CCN(S(C)(=O)=O)CC5)c([N+](=O)[O-])c4)c(Oc4cccc5[nH]ccc45)c3)CC2)=C(c2ccc(Cl)cc2)C1` [EXAMPLE 338, 4-(4-{[2-(4-chlorophenyl)-4,4-dimethylcyclohex-1-en-1-yl]methyl}piperazin-1-yl)-2-(1H-indol-4-yloxy)-N-[(4-{[1-(methylsulfonyl)piperidin-4-yl]amino}-3-nitrophenyl)sulfonyl]benzamide]: the “Binding selectivity ratio” value is on record as greater than 1637.7. Then `O=C(NS(=O)(=O)c1ccc(NCC2CCOCC2)c([N+](=O)[O-])c1)c1ccc(N2CCN(Cc3ccc(C(F)(F)F)cc3-c3ccc(Cl)cc3)CC2)cc1Oc1ccc2[nH]ccc2c1` [EXAMPLE 339, 4-(4-{[4′-chloro-5-(trifluoromethyl)-1,1′-biphenyl-2-yl]methyl}piperazin-1-yl)-2-(1H-indol-5-yloxy)-N-({3-nitro-4-[(tetrahydro-2H-pyran-4-ylmethyl)amino]phenyl}sulfonyl)benzamide], with greater than 46.7. Then `O=C(NS(=O)(=O)c1ccc(OCC2CCOCC2)c([N+](=O)[O-])c1)c1ccc(N2CCN(Cc3ccc(C(F)(F)F)cc3-c3ccc(Cl)cc3)CC2)cc1Oc1ccc2[nH]ccc2c1` [EXAMPLE 340, 4-(4-{[4′-chloro-5-(trifluoromethyl)-1,1′-biphenyl-2-yl]methyl}piperazin-1-yl)-2-(1H-indol-5-yloxy)-N-{[3-nitro-4-(tetrahydro-2H-pyran-4-ylmethoxy)phenyl]sulfonyl}benzamide], with greater than 86.9; and `CC(C)(C)c1ccc(CN2CCN(c3ccc(C(=O)NS(=O)(=O)c4ccc(NCC5CCOCC5)c([N+](=O)[O-])c4)c(Oc4ccc5[nH]ccc5c4)c3)CC2)c(-c2ccc(Cl)cc2)c1` [EXAMPLE 341, 4-{4-[(5-tert-butyl-4′-chloro-1,1′-biphenyl-2-yl)methyl]piperazin-1-yl}-2-(1H-indol-5-yloxy)-N-({3-nitro-4-[(tetrahydro-2H-pyran-4-ylmethyl)amino]phenyl}sulfonyl)benzamide], with greater than 50.8; and `CC(C)(C)c1ccc(CN2CCN(c3ccc(C(=O)NS(=O)(=O)c4ccc(OCC5CCOCC5)c([N+](=O)[O-])c4)c(Oc4ccc5[nH]ccc5c4)c3)CC2)c(-c2ccc(Cl)cc2)c1` [EXAMPLE 342, 4-{4-[(5-tert-butyl-4′-chloro-1,1′-biphenyl-2-yl)methyl]piperazin-1-yl}-2-(1H-indol-5-yloxy)-N-{[3-nitro-4-(tetrahydro-2H-pyran-4-ylmethoxy)phenyl]sulfonyl}benzamide], with greater than 25.6. On to `CC1(C)CCC(CN2CCN(c3ccc(C(=O)NS(=O)(=O)c4ccc(NCC(F)(F)F)c([N+](=O)[O-])c4)c(Oc4cccc5[nH]ccc45)c3)CC2)=C(c2ccc(Cl)cc2)C1` [EXAMPLE 343, 4-(4-{[2-(4-chlorophenyl)-4,4-dimethylcyclohex-1-en-1-yl]methyl}piperazin-1-yl)-2-(1H-indol-4-yloxy)-N-({3-nitro-4-[(2,2,2-trifluoroethyl)amino]phenyl}sulfonyl)benzamide], for which the “Binding selectivity ratio” value was greater than 1145.9. Then `CC1(C)CCC(CN2CCN(c3ccc(C(=O)NS(=O)(=O)c4ccc(NCC(F)(F)F)c([N+](=O)[O-])c4)c(Oc4ccc5[nH]ccc5c4)c3)CC2)=C(c2ccc(Cl)cc2)C1` [EXAMPLE 344, 4-(4-{[2-(4-chlorophenyl)-4,4-dimethylcyclohex-1-en-1-yl]methyl}piperazin-1-yl)-2-(1H-indol-5-yloxy)-N-({3-nitro-4-[(2,2,2-trifluoroethyl)amino]phenyl}sulfonyl)benzamide], with 1576.9; and `CC1(C)CCC(CN2CCN(c3ccc(C(=O)NS(=O)(=O)c4cccc(C(=O)NCC5CCOCC5)c4)c(Oc4ccc5[nH]ccc5c4)c3)CC2)=C(c2ccc(Cl)cc2)C1` [EXAMPLE 345, 4-(4-{[2-(4-chlorophenyl)-4,4-dimethylcyclohex-1-en-1-yl]methyl}piperazin-1-yl)-2-(1H-indol-5-yloxy)-N-[(3-{[(tetrahydro-2H-pyran-4-ylmethyl)amino]carbonyl}phenyl)sulfonyl]benzamide], with greater than 575.9; and `CC1(C)CCC(CN2CCN(c3ccc(C(=O)NS(=O)(=O)c4ccc(OC[C@H]5COCCO5)c([N+](=O)[O-])c4)c(Oc4ccc5[nH]ccc5c4)c3)CC2)=C(c2ccc(Cl)cc2)C1` [EXAMPLE 346, 4-(4-{[2-(4-chlorophenyl)-4,4-dimethylcyclohex-1-en-1-yl]methyl}piperazin-1-yl)-N-({4-[(2R)-1,4-dioxan-2-ylmethoxy]-3-nitrophenyl}sulfonyl)-2-(1H-indol-5-yloxy)benzamide], with 11405.2. Then `CC1(C)CCC(CN2CCN(c3ccc(C(=O)NS(=O)(=O)c4ccc(OC[C@@H]5COCCO5)c([N+](=O)[O-])c4)c(Oc4ccc5[nH]ccc5c4)c3)CC2)=C(c2ccc(Cl)cc2)C1` [EXAMPLE 347, 4-(4-{[2-(4-chlorophenyl)-4,4-dimethylcyclohex-1-en-1-yl]methyl}piperazin-1-yl)-N-({4-[(2S)-1,4-dioxan-2-ylmethoxy]-3-nitrophenyl}sulfonyl)-2-(1H-indol-5-yloxy)benzamide], with 1256.7; and `CC1(C)CCC(CN2CCN(c3ccc(C(=O)NS(=O)(=O)c4ccc(NCCCN5CCOCC5)c(S(=O)(=O)C(F)(F)F)c4)c(Oc4ccc5[nH]ccc5c4)c3)CC2)=C(c2ccc(Cl)cc2)C1` [EXAMPLE 348, 4-(4-{[2-(4-chlorophenyl)-4,4-dimethylcyclohex-1-en-1-yl]methyl}piperazin-1-yl)-2-(1H-indol-5-yloxy)-N-({4-[(3-morpholin-4-ylpropyl)amino]-3-[(trifluoromethyl)sulfonyl]phenyl}sulfonyl)benzamide], with 97.1. As to `CC1(C)CCC(CN2CCN(c3ccc(C(=O)NS(=O)(=O)c4ccc(NCCCN5CCOCC5)c(S(=O)(=O)C(F)(F)F)c4)c(Oc4cccc5[nH]ccc45)c3)CC2)=C(c2ccc(Cl)cc2)C1` [EXAMPLE 349, 4-(4-{[2-(4-chlorophenyl)-4,4-dimethylcyclohex-1-en-1-yl]methyl}piperazin-1-yl)-2-(1H-indol-4-yloxy)-N-({4-[(3-morpholin-4-ylpropyl)amino]-3-[(trifluoromethyl)sulfonyl]phenyl}sulfonyl)benzamide], the “Binding selectivity ratio” value came to 51.9.

For `CC1(C)CCC(CN2CCN(c3ccc(C(=O)NS(=O)(=O)c4cnc(NCC5CCOCC5)c(Br)c4)c(Oc4ccc5[nH]ccc5c4)c3)CC2)=C(c2ccc(Cl)cc2)C1` [EXAMPLE 350, N-({5-bromo-6-[(tetrahydro-2H-pyran-4-ylmethyl)amino]pyridin-3-yl}sulfonyl)-4-(4-{[2-(4-chlorophenyl)-4,4-dimethylcyclohex-1-en-1-yl]methyl}piperazin-1-yl)-2-(1H-indol-5-yloxy)benzamide], the “Binding selectivity ratio” value was greater than 110.6. With `CC1(C)CCC(CN2CCN(c3ccc(C(=O)NS(=O)(=O)c4ccc(NCCN5CCOCC5)c(S(=O)(=O)C(F)(F)F)c4)c(Oc4ccc5[nH]ccc5c4)c3)CC2)=C(c2ccc(Cl)cc2)C1` [EXAMPLE 351, 4-(4-{[2-(4-chlorophenyl)-4,4-dimethylcyclohex-1-en-1-yl]methyl}piperazin-1-yl)-2-(1H-indol-5-yloxy)-N-({4-[(2-morpholin-4-ylethyl)amino]-3-[(trifluoromethyl)sulfonyl]phenyl}sulfonyl)benzamide], the “Binding selectivity ratio” value is greater than 418.7. Then `CC1(C)CCC(CN2CCN(c3ccc(C(=O)NS(=O)(=O)c4cnc(NCC5CCOCC5)c(C#N)c4)c(Oc4ccc5[nH]ccc5c4)c3)CC2)=C(c2ccc(Cl)cc2)C1` [EXAMPLE 352, 4-(4-{[2-(4-chlorophenyl)-4,4-dimethylcyclohex-1-en-1-yl]methyl}piperazin-1-yl)-N-({5-cyano-6-[(tetrahydro-2H-pyran-4-ylmethyl)amino]pyridin-3-yl}sulfonyl)-2-(1H-indol-5-yloxy)benzamide], with greater than 96.7; and `CN1CCC(Oc2ccc(S(=O)(=O)NC(=O)c3ccc(N4CCN(CC5=C(c6ccc(Cl)cc6)CC(C)(C)CC5)CC4)cc3Oc3ccc4[nH]ccc4c3)cc2[N+](=O)[O-])CC1` [EXAMPLE 353, 4-(4-{[2-(4-chlorophenyl)-4,4-dimethylcyclohex-1-en-1-yl]methyl}piperazin-1-yl)-2-(1H-indol-5-yloxy)-N-({4-[(1-methylpiperidin-4-yl)oxy]-3-nitrophenyl}sulfonyl)benzamide], with greater than 2260.0.

`CN1CCC(COc2ccc(S(=O)(=O)NC(=O)c3ccc(N4CCN(CC5=C(c6ccc(Cl)cc6)CC(C)(C)CC5)CC4)cc3Oc3ccc4[nH]ccc4c3)cc2[N+](=O)[O-])CC1` [EXAMPLE 354, 4-(4-{[2-(4-chlorophenyl)-4,4-dimethylcyclohex-1-en-1-yl]methyl}piperazin-1-yl)-2-(1H-indol-5-yloxy)-N-({4-[(1-methylpiperidin-4-yl)methoxy]-3-nitrophenyl}sulfonyl)benzamide]: the “Binding selectivity ratio” value is 148.8. Turning to `O=C(NS(=O)(=O)c1ccc(NCC2CCOCC2)c([N+](=O)[O-])c1)c1ccc(N2CCN(CC3=C(c4ccc(Cl)cc4)CCN(CCCO)C3)CC2)cc1Oc1cccc2[nH]ccc12` [EXAMPLE 355, 4-(4-{[4-(4-chlorophenyl)-1-(3-hydroxypropyl)-1,2,5,6-tetrahydropyridin-3-yl]methyl}piperazin-1-yl)-2-(1H-indol-4-yloxy)-N-({3-nitro-4-[(tetrahydro-2H-pyran-4-ylmethyl)amino]phenyl}sulfonyl)benzamide], the “Binding selectivity ratio” value was greater than 5489.5.
